Laboratory results reported in US9187524B2, “Broad spectrum antibiotic arylomycin analogs” (The Scripps Research Institute, priority 2010, dated 2015).
In brackets after ≈: the same amount, converted by molar mass. Read-outs that look alike come from different tables or passages of the source.

What was measured:
S. pneumoniae = assay: microbe, parasite or virus in culture; assay type: cell-based, Streptococcus pneumoniae
[1] = tested on: lepB(P84L) E. coli MG1655; assay: microbe, parasite or virus in culture; assay type: cell-based, Escherichia coli; conditions: for MIC: Escherichia coli, MG1655, read-out: MIC, E. coli P84L
S. pyogenes = assay: microbe, parasite or virus in culture; assay type: cell-based, Streptococcus pyogenes
S. agalactiae = assay: microbe, parasite or virus in culture; assay type: cell-based, Streptococcus agalactiae
R. opacus = assay: microbe, parasite or virus in culture; assay type: cell-based; conditions: Rhodococcus opacus; Table 4; read-out: MIC, R. opacus
C. glutamicum = assay: microbe, parasite or virus in culture; assay type: cell-based, Corynebacterium glutamicum; conditions: Corynebacterium glutamicum; Table 4; read-out: MIC, C. glutamicum
C. efficiens = assay: microbe, parasite or virus in culture; assay type: cell-based; conditions: Corynebacterium efficiens, Table 4; read-out: MIC, C. efficiens
R. equi = assay: microbe, parasite or virus in culture; assay type: cell-based; conditions: Rhodococcus (subgen. Prescottella) equi; Table 4
L. lactis = assay: microbe, parasite or virus in culture; assay type: cell-based, Lactococcus lactis; conditions: Lactococcus lactis, Table 4
[2] = tested on: lepB(P84L) P. aeruginosa PAO1; assay: microbe, parasite or virus in culture; assay type: cell-based, Pseudomonas aeruginosa; conditions: for MIC: Pseudomonas aeruginosa, PAO1, read-out: MIC, P. aeruginosa P84L
wild type E. coli MG1655 = assay: microbe, parasite or virus in culture; assay type: cell-based, Escherichia coli; conditions: for MIC: Escherichia coli, MG1655, read-out: MIC, E. coli
[3] = tested on: lepB(P29S) S. aureus 8325; assay: microbe, parasite or virus in culture; assay type: cell-based, Staphylococcus aureus; conditions: for MIC: Staphylococcus aureus, read-out: MIC, S. aureus P29S
B. brevis = assay: microbe, parasite or virus in culture; assay type: cell-based, Brevibacillus brevis; conditions: for MIC: Brevibacillus brevis, Table 4, read-out: MIC, B. brevis
[4] = tested on: wild type S. epidermidis RP62A; assay: microbe, parasite or virus in culture; assay type: cell-based, Staphylococcus epidermidis; conditions: for MIC: Staphylococcus epidermidis, read-out: MIC, S. epidermidis
[5] = tested on: wild type P. aeruginosa PAO1; assay: microbe, parasite or virus in culture; assay type: cell-based, Pseudomonas aeruginosa
[6] = tested on: spsB(S29P) S. epidermidis RP62A; assay: microbe, parasite or virus in culture; assay type: cell-based, Staphylococcus epidermidis
wild type S. aureus 8325 = assay: microbe, parasite or virus in culture; assay type: cell-based, Staphylococcus aureus
[7] = tested on: S. epidermidis ATCC 35984; assay: MIC; assay type: cell-based; conditions: Table 1

| Molecule | MIC, Resistant Pa [5] [µg/mL] | MIC, Sensitive Ec [1] [µg/mL] | MIC, Resistant Se [6] [µg/mL] | MIC, Sensitive Pa [2] [µg/mL] | MIC, Resistant Sa (wild type S. aureus 8325) [µg/mL] | MIC, Resistant Ec (wild type E. coli MG1655) [µg/mL] | MIC, Sensitive Sa [3] [µg/mL] | MIC, Sensitive Se [4] [µg/mL] | fold loss of activity against sensitized P. aeruginosa relative to arylomycin C16 [2] | fold loss of activity against sensitized S. aureus relative to arylomycin C16 [3] | further results |
| --- | --- | --- | --- | --- | --- | --- | --- | --- | --- | --- | --- |
| CCCCCCCCCCCCCCCC(=O)N(C)[C@H](CO)C(=O)N[C@H](C)C(=O)NCC(=O)N(C)[C@@H]1C(=O)NC(C)C(=O)N[C@H](C(=O)O)Cc2cc(c(O)c([N+](=O)[O-])c2)-c2cc1ccc2O (stereo partly shown) [Arylomycin B-C16] |  |  |  |  |  |  |  |  |  |  | MIC (S. pneumoniae; Streptococcus pneumoniae, Table 4, read-out: MIC, S. pneumoniae): 16 µg/mL (≈ 17.3 µM); MIC, S. pneumoniae (S. pneumoniae; Table 14): 16 µg/mL (≈ 17.3 µM); MIC [1]: 2 µg/mL (≈ 2.16 µM); MIC (S. pyogenes; Streptococcus pyogenes, Table 4, read-out: MIC, S. pyogenes): 4 µg/mL (≈ 4.32 µM); MIC, S. pyogenes (S. pyogenes; Table 14): 4 µg/mL (≈ 4.32 µM); fold more activity against Streptococcus agalactiae than arylomycin C16 (S. agalactiae): greater than 16 fold; MIC (S. agalactiae; Streptococcus agalactiae, Table 4, read-out: MIC, S. agalactiae): 8 µg/mL (≈ 8.64 µM); MIC, S. agalactiae (S. agalactiae; Table 14): 8 µg/mL (≈ 8.64 µM); MIC (R. opacus): 4 µg/mL (≈ 4.32 µM); MIC (C. glutamicum): 2 µg/mL (≈ 2.16 µM); MIC (C. efficiens): 16 µg/mL (≈ 17.3 µM); MIC (R. equi): 32 µg/mL (≈ 34.6 µM); MIC (L. lactis): 32 µg/mL (≈ 34.6 µM); MIC [2]: 4 µg/mL (≈ 4.32 µM); MIC (wild type E. coli MG1655): > 64 µg/mL; MIC [3]: 8 µg/mL (≈ 8.64 µM); MIC (B. brevis): > 64 µg/mL; activity against B. brevis (B. brevis; MHBII broth and nutrient broth): no activity; MIC [4]: 0.13 µg/mL (≈ 0.14 µM) |
| CCCCCCCCCCCCCCCC(=O)N[C@H](CO)C(=O)N[C@H](C)C(=O)NCC(=O)N(C)[C@@H]1C(=O)N[C@@H](C)C(=O)N[C@H](C(=O)O)Cc2ccc(O)c(c2)-c2cc1ccc2O [Compound 17] | >64 | 4 (≈ 4.61 µM) | 32 (≈ 36.9 µM) | >64 | >64 | >64 | 16 (≈ 18.5 µM) | 1 (≈ 1.15 µM) |  |  |  |
| CCCCCCCCCCCCCCCC(=O)N(C)[C@H](CO)C(=O)N(C)[C@H](C)C(=O)NCC(=O)N(C)[C@@H]1C(=O)N[C@@H](C)C(=O)N[C@H](C(=O)O)Cc2ccc(O)c(c2)-c2cc1ccc2O [Compound 18] | >64 | >64 | >64 | >64 | >64 | >64 | >64 | >64 |  |  |  |
| CCCCCCCCCCCCCCCC(=O)N1CC(O)CC1C(=O)NC(C)C(=O)NCC(=O)N(C)C1C(=O)NC(C)C(=O)NC(C(=O)O)Cc2ccc(O)c(c2)-c2cc1ccc2O (stereo not shown) [Compound 19] | >64 | >64 | 8 (≈ 8.96 µM) | >64 | >64 | >64 | 4 (≈ 4.48 µM) | 4 (≈ 4.48 µM) |  |  |  |
| CCCCCCCCCCCCCCCC(=O)N(C)C(CO)CCC(=O)NC(C)C(=O)NCC(=O)N(C)C1C(=O)NC(C)C(=O)NC(C(=O)O)Cc2ccc(O)c(c2)-c2cc1ccc2O (stereo not shown) [Compound 24] | >64 | >64 | 16 (≈ 17.6 µM) | >64 | 16 (≈ 17.6 µM) | >64 | 4 (≈ 4.4 µM) | 8 (≈ 8.8 µM) |  |  |  |
| CCCCCCCCCCCCCCCC(=O)N(C)[C@H](CO)C(=O)N[C@H](C)C(=O)NCC(=O)N(C)[C@@H]1C(=O)NCC(=O)N[C@H](C(=O)O)Cc2ccc(O)c(c2)-c2cc1ccc2O [Compound 26] |  |  |  |  |  |  |  |  | > 16 fold | > 16 fold | fold loss of activity against sensitized E. coli relative to arylomycin C16 [1]: 32 fold; fold loss of activity against S. epidermidis relative to arylomycin C16 [4]: 32 fold |
| CCCCCCCCCCCCCCCC(=O)N(C)C(CO)C(=O)NC(C)C(=O)NCC(=O)N(C)C1C(=O)NC(CCCC)C(=O)NC(C(=O)O)Cc2ccc(O)c(c2)-c2cc1ccc2O (stereo not shown) [Compound 29] |  |  |  |  |  |  |  |  |  | 32 fold |  |
| CCCCCCCCCCCCCCCC(=O)N(C)C(CO)C(=O)NC(C)C(=O)NCC(=O)N(C)C1C(=O)NC(CCCCC)C(=O)NC(C(=O)O)Cc2ccc(O)c(c2)-c2cc1ccc2O (stereo not shown) [Compound 30] |  |  |  |  |  |  |  |  |  | 32 fold |  |
| CCCCCCCCCCCCCCCC(=O)N(C)C(CO)C(=O)NC(C)C(=O)NCC(=O)N(C)C1C(=O)NC(CC(F)(F)F)C(=O)NC(C(=O)O)Cc2ccc(O)c(c2)-c2cc1ccc2O (stereo not shown) [Compound 33] |  |  |  |  |  |  |  |  | at least 16 fold | at least 16 fold | fold loss of activity against sensitized E. coli relative to arylomycin C16 [1]: 8 fold; fold loss of activity against S. epidermidis relative to arylomycin C16 [4]: 32 fold |
| CCCCCCCCCCCCCCCC(=O)N(C)C(CO)C(=O)NC(C)C(=O)NCC(=O)N(C)C1C(=O)NC(C(C)C)C(=O)NC(C(=O)O)Cc2ccc(O)c(c2)-c2cc1ccc2O (stereo not shown) [Compound 34] |  |  |  |  |  |  |  |  | 4 fold |  |  |
| CCCCCCCCCCCCCCCC(=O)N(C)C(CO)C(=O)NC(C)C(=O)NCC(=O)N(C)C1C(=O)NC(CC(C)C)C(=O)NC(C(=O)O)Cc2ccc(O)c(c2)-c2cc1ccc2O (stereo not shown) [Compound 35] |  |  |  |  |  |  |  |  | > 16 fold |  |  |
| CCCCCCCCCCCCCCCC(=O)N(C)[C@H](CO)C(=O)N[C@H](C)C(=O)NCC(=O)N(C)[C@@H]1C(=O)N[C@@H](C)C(=O)N[C@H](C(=O)O)Cc2cc(N)c(O)c(c2)-c2cc1ccc2O [Compound 36] |  |  |  |  |  |  |  |  | 8 fold | 32 fold | fold loss of activity against sensitized E. coli relative to arylomycin C16 [1]: 8 fold; MIC [1]: 16 µg/mL (≈ 17.9 µM); MIC [2]: 32 µg/mL (≈ 35.7 µM); MIC (wild type E. coli MG1655): > 64 µg/mL; MIC [3]: 64 µg/mL (≈ 71.4 µM); MIC (B. brevis): > 64 µg/mL; MIC [4]: 8 µg/mL (≈ 8.93 µM); fold loss of activity against S. epidermidis relative to arylomycin C16 ([4]; sensitive (wild type) strain): 32 fold |
| Arylomycin A2 [reference compound] |  |  |  |  |  |  |  |  |  |  | MIC, S. aureus 8325 (wild type S. aureus 8325; Table 1): >128 µM; MIC, E. coli MG1655 (wild type E. coli MG1655; Table 1): >128 µM; MIC, S. epidermidis ATCC 35984 [7]: 1 µM |
